In brackets after ≈: the same amount, converted by molar mass. Several values for one entry are separate records, joined by “and”; a condition that tells them apart may be missing. Equal entries are not always repeated. Where two headings read alike, the source gives them in different places. Where a SMILES comes first, the peptide text is derived from it.
Legend:
[1] = tested on: S. aureus CCARM3518; format: cell-based, Staphylococcus aureus; details: 37° C., 24 hours
Text: (§1) Biofilms may form on a wide variety of surfaces, including living or dead surfaces, and biofilm-associated bacteria are more tolerant to antibiotics than planktonic bacterial cells, making them antibiotic-resistant. To assess the efficacy of PEP27-2 against biofilms, we observed the anti-biofilm activity of PEP27-2 in S. aureus (ATCC 25923 and CCARM 3090), E. coli (ATCC 25922 and CCARM 1238), and P. aeruginosa (ATCC 27853 and 4891).
(§2) Specifically, among the strains listed in Table 3 above, Staphylococcus aureus, E. coli and Pseudomonas erujinosa, respectively, were cultured in each medium to a mid-log phase, diluted to a cell concentration of 5×10^4 cells/100 μl, and then, inoculated into a micro-plate (SPL). Then, PEP27-2 peptide was diluted 1/10 times with 10 mM PBS solution (pH 7.2) and 10 μl of the solution was added to each well, followed by incubation at 37° C. for 24 hours. After completely removing the supernatant, the solution was fixed with 100% methanol for 15 minutes, stained with a crystal violet dye solution for 1 hour, washed 3 times, and then dissolved in 95% ethanol, followed by measuring the absorbance at a wavelength of 595 nm using a micro titration plate reader, thereby determining a biofilm minimal inhibitory concentration value for each strain.

[2] = tested on: S. aureus ATCC29213; format: cell-based, Staphylococcus aureus
Text: as §1, §2

[3] = tested on: S. aureus CCARM3089; format: cell-based, Staphylococcus aureus; details: 37° C., 24 hours
Text: as §1, §2

[4] = tested on: S. aureus CCARM3090; format: cell-based, Staphylococcus aureus; details: 37° C., 24 hours
Text: as §1, §2

[5] = tested on: S. aureus ATCC25923; format: cell-based, Staphylococcus aureus
Text: as §1, §2

[6] = tested on: L. monocytogens KCTC3710; format: cell-based, Listeria monocytogenes
Experimental: (§3) In order to evaluate the antimicrobial activity of the peptides prepared by the method of above 1, a minimal inhibitory concentration (MIC) value as the minimum concentration of a peptide, in which cells are not divided, was measured.
(§4) Specifically, the strains shown in Table 3 below were purchased, cultured in a medium having a constitutional composition suitable for each strain to a mid-log phase, and then diluted to a concentration of 2×10^4 cells/100 μl to prepare the product on a micro-titration plate (Nunc, USA). Then, PEP27, PEP27-1, PEP27-2 or PEP27-5 peptide synthesized in the above 1 was added to each well by serial dilution ½ times, followed by incubation at 37° C. for 18 hours.

[7] = tested on: B. subtilis KCTC1998; format: cell-based, Bacillus subtilis
Experimental: as §3, §4

[8] = tested on: S. aureus CCARM3518; assay: microbe, parasite or virus in culture; details: S. aureus CCARM3518, antibiotics-tolerant; 37° C., 18 hours
Procedure, shortened: (§5)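 Peptide growth inhibition measured by twofold dilution against mid-log bacteria (2×10^4 cells/100 μl), 37° C, 18 hours; endpoint was absence of cell division. Meropenem, ceftazidime, ceftriaxone and vancomycin were run in parallel.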

[9] = tested on: P. aeruginosa ATCC15692; assay: microbe, parasite or virus in culture
Procedure, shortened: as §5

[10] = tested on: S. aureus CCARM3090; assay: microbe, parasite or virus in culture; details: S. aureus CCARM3090, antibiotics-tolerant; 37° C., 18 hours
Procedure, shortened: as §5

[11] = tested on: HaCaT and MCF-7 cells; assay: MTT cytotoxicity; format: cell-based, human; details: for toxicity relative to the antimicrobial concentration range: mouse erythrocytes and human cells
Experimental: Specifically, Thiazolyl blue tetrazolium bromide (MTT, Merck KGaA) was used to determine the cytotoxicity of PEP27 and its analogs against HaCaT (human keratinocyte […], n=4 per condition) and MCF-7 (human breast adenocarcinoma, n=3 per condition) cells. The cells were cultured in Dulbecco's modified Eagle's medium (DMEM) supplemented with 10 heat-inactivated fetal bovine serum (FBS, Gibco, Grand Island, NY, USA) and 1% penicillin-streptomycin (Gibco) at a density of 2×10^4 cells/well (96-well plate). Peptides were then added at various concentrations and incubated for 24 h at 37° C., after which MTT (final concentration, 0.5 mg/mL) was added to each well and incubated for 4 h. The formazan product was solubilized in DMSO, and the absorbance at 570 nm was measured to […] cytotoxicity. Cells treated with 0.1% Triton X-100 were used as the 100% cytotoxic control sample.

[12] = tested on: P. aeruginosa ATCC15692; format: cell-based, Pseudomonas aeruginosa
[13] = tested on: red blood cells of a rat (Balb/c); details: 37° C., 1 hour
Experimental: In order to compare the cytotoxicity of the peptides prepared by the method of above 1, erythrocyte hemolytic activity of each of the synthesized peptides was measured.
Specifically, red blood cells of a rat (Balb/c, 6 weeks old, female) were diluted with PBS (pH 7.0) to a concentration of 8%, and PEP27, PEP27-1, PEP27-2 and PEP27-5 peptides were used for treatment of the cells at concentrations of 3.13, 6.25, 12.5, 25.01 50.0 and 100.0 μM/well, respectively, followed by reaction at 37° C. for 1 hour. Then, an amount of hemoglobin contained in the supernatant obtained by centrifugation at 1,000×g was determined by measuring the absorbance at a wavelength of 414 nm. As a control which is a standard for the degree of cell destruction, the absorbance of the obtained supernatant was measured after treatment using 1% Triton X-100 (Sigma, USA) and reaction at 37° C. for 1 hour. With reference to 100% erythrocytes hemolysis activity, hemolysis of each peptide was calculated from the measured absorbance using Equation 1 below. Erythrocyte destruction ability (%)=(Absorbance A−Absorbance B)/(Absorbance C−Absorbance B)×100 [Equation 1]
(wherein, absorbance A represents the absorbance of a reaction solution treated with each peptide measured at a wavelength of 414 nm; absorbance B represents the absorbance of a reaction solution treated with PBS measured at a wavelength of 414 nm; and absorbance C represents the absorbance of a reaction solution treated with 1% Triton X-100 measured at a wavelength of 414 nm).

[14] = Peptide concentration 100 μM, 100% = 1% Triton X-100

SMILES | Biofilm minimal inhibitory concentration [1] [µM] | Biofilm minimal inhibitory concentration [3] [µM] | Biofilm minimal inhibitory concentration [4] [µM] | Minimal inhibitory concentration [8] [µM] | Minimal inhibitory concentration [10] [µM] | toxicity relative to the antimicrobial concentration range [11] | Erythrocyte destruction ability ([13]; Peptide concentration 3.13 μM) [%] | Erythrocyte destruction ability ([13]; Peptide concentration 6.25 μM) [%] | Erythrocyte destruction ability ([13]; Peptide concentration 12.5 μM) [%] | Erythrocyte destruction ability ([13]; Peptide concentration 25 μM) [%] | Erythrocyte destruction ability ([13]; Peptide concentration 50 μM) [%] | Erythrocyte destruction ability [13, 14] | also measured
CSCC[C@H](N)C(=O)N[C@@H](Cc1c[nH]c2ccccc12)C(=O)N[C@@H](CCCCN)C(=O)N[C@@H](Cc1c[nH]c2ccccc12)C(=O)N[C@@H](Cc1ccccc1)C(=O)N[C@@H](Cc1c[nH]cn1)C(=O)N[C@@H](CC(N)=O)C(=O)N[C@H](C(=O)N[C@@H](CC(C)C)C(=O)N[C@@H](CO)C(=O)N[C@@H](Cc1c[nH]c2ccccc12)C(=O)NCC(=O)N[C@@H](Cc1c[nH]c2ccccc12)C(=O)N[C@@H](CC(C)C)C(=O)N[C@@H](CC(C)C)C(=O)N[C@@H](C)C(=O)N[C@@H](CC(=O)O)C(=O)N[C@@H](CCCCN)C(=O)N[C@@H](CCCNC(=N)N)C(=O)N1CCC[C@H]1C(=O)N[C@@H](C)C(=O)N[C@@H](CCCNC(=N)N)C(=O)N[C@@H](CC(=O)O)C(=O)N[C@@H](Cc1ccc(O)cc1)C(=O)N[C@@H](CC(N)=O)C(=O)N[C@@H](CCCNC(=N)N)C(=O)N[C@@H](CCCCN)C(N)=O)C(C)C [PEP27-2] (H-MWKWFHNVLSWGWLLADKRPARDYNRK-NH2) | 4 | 4 | 4 | 4 (≈ 13.9 µg/mL) | 4 (≈ 13.9 µg/mL) | not toxic within the range of antimicrobial activity or 4×MIC concentration | 0 | 2.30 | 14.96 | 40.51 | 62.47 | 75.8% and 75.84% | Biofilm minimal inhibitory concentration ([2]; ATCC29213, 24 h): 4 µM; maximum percent biofilm inhibition ([5]; ATCC25923): 83.4%; Biofilm minimal inhibitory concentration ([5]; ATCC25923, 24 h): 4 µM; Minimal inhibitory concentration ([6]; KCTC3710, 18 h): 8 µM (≈ 27.8 µg/mL); Minimal inhibitory concentration ([7]; KCTC1998, 18 h): 4 µM (≈ 13.9 µg/mL); Minimal inhibitory concentration ([9]; ATCC15692, 18 h): 4 µM (≈ 13.9 µg/mL); cell viability ([11]; 100 μM, 24 h, MTT, HaCaT and MCF-7 cells): 19%-23%; Biofilm minimal inhibitory concentration ([12]; ATCC15692, 24 h): 8 µM
CC[C@H](C)[C@H](NC(=O)CN)C(=O)NCC(=O)N[C@@H](C)C(=O)N[C@H](C(=O)N[C@@H](CC(C)C)C(=O)N[C@@H](CCCCN)C(=O)N[C@H](C(=O)N[C@@H](CC(C)C)C(=O)N[C@H](C(=O)N[C@H](C(=O)NCC(=O)N[C@@H](CC(C)C)C(=O)N1CCC[C@H]1C(=O)N[C@@H](C)C(=O)N[C@@H](CC(C)C)C(=O)N[C@H](C(=O)N[C@@H](CO)C(=O)N[C@@H](Cc1c[nH]c2ccccc12)C(=O)N[C@H](C(=O)N[C@@H](CCCCN)C(=O)N[C@@H](CCCNC(=N)N)C(=O)N[C@@H](CCCCN)C(=O)N[C@@H](CCCNC(=N)N)C(=O)N[C@@H](CCC(N)=O)C(=O)N[C@@H](CCC(N)=O)C(N)=O)[C@@H](C)CC)[C@@H](C)CC)[C@@H](C)O)[C@@H](C)O)C(C)C)C(C)C [Melittin, reference compound] | 8 | 4 | 4 | 2 (≈ 5.69 µg/mL) | 4 (≈ 11.4 µg/mL) | begins to show toxicity within the range of antibacterial activity | 27.33 | 49.41 | 69.75 | 83.99 | 97.76 | 99.17% | Biofilm minimal inhibitory concentration ([2]; S. aureus ATCC29213, 37° C., 24 hours): 4 µM; Biofilm minimal inhibitory concentration ([5]; S. aureus ATCC25923, 37° C., 24 hours): 4 µM; Minimal inhibitory concentration ([6]; L. monocytogens KCTC3710, Gram-positive, 37° C., 18 hours): 4 µM (≈ 11.4 µg/mL); Minimal inhibitory concentration ([7]; B. subtilis KCTC1998, Gram-positive, 37° C., 18 hours): 4 µM (≈ 11.4 µg/mL); Minimal inhibitory concentration ([9]; P. aeruginosa ATCC15692, Gram-negative, 37° C., 18 hours): 2 µM (≈ 5.69 µg/mL); Biofilm minimal inhibitory concentration ([12]; P. aeruginosa ATCC15692, 37° C., 24 hours): 4 µM

From patent publication US12180252B2, “Peptide derived from PEP27 peptide and uses thereof” (priority 2021, dated 2024)
